# Where two headings read alike, the source gives them in different places. Marks after values point to notes of the source that are not given here.
# Columns and labels:
# [1] = system: DNBS-Induced Inflammatory Bowel Disease Models in Rats; assay: Biological Example 4: DNBS-induced inflammatory bowel disease models in rats; type: in vivo, Wistar rats; conditions: 30 mg/Kg i.g. qd × 7; for Adhesion Degree of Colon / Colon weight to length ratio / Ulcer area of colon / inhibition in vivo at 30 mg/kg: day 7; for Body weight: Mean ± SD; for inhibition in vivo at 30 mg/kg: Rattus norvegicus, po, 168 h
# Method: 102 male Wistar rats were fasted for 72 hours. A 5% glucose injection was administered subcutaneously twice during fasting. 88 rats with normal conditions and moderate body weight were selected from the fasting rats. The animals were randomly divided into 11 groups according to the body weight (see Table 11. Grouped Table).
# The animals were anesthetized with ether after 72 hours fasting. A specially made gavage device was slowly inserted into the enteric cavity at 8 cm from the anus. The model control group and each test group were administered with 0.5 mL of 50 mg/mL DNBS in 30% ethanol solution. The normal control group was administered with 0.5 mL of 30% ethanol solution. The animals were inverted in anesthesia for 15 minutes. The day when the model was prepared was day 0 of the experiment. After 4 hours of DNBS induction, the corresponding drug or the corresponding volume of 1% CMC-Na was administered once per day. On day 7 of the experiment, the animals were euthanized to score the colon adhesion degree, measure the length of colon and ulcer area, weigh colon and calculate the colon weight to length ratio.
# One-way ANOVA analysis of the length of colon and colon weight per length of rats was performed by SPSS22. Statistical analyses between groups were performed. The adhesion degree was scored. Mann-Whitney U non-parametric test was performed on ulcer area. Statistical analyses between groups were performed.
# Calculation Formula of Inhibitory rate of weight increase per length: (Colon weight to length ratio in model group−Colon weight to length ratio in administration group)/(Colon weight to length ratio in model group−Colon weight to length ratio in blank group)
# [2] = system: mice; assay: Biological Example 5: acute toxicity experiment of single oral administration in mice; type: in vivo; conditions: single oral 1000 mg/Kg, Mean ± SD
# Method: The mice were fasted one day before the experiment. On the day of the experiment, 6 mice (ICR mice, body weight of 19-21 g, three females and three males) were selected in each experiment group. First of all, one female and one male were selected to orally give 1000 mg/Kg, and observed for 5-10 minutes. If there were no obvious side effects, the remaining 4 animals were orally given the same dose, and observed for 10-15 minutes. If no animal died, the animals were placed in a box to balancedly feed for 7 days. The state was observed and the body weight was recorded daily.
# Observation Indexes within 0-15 Minutes after Administration
# Activity: restlessness, hyperactivity
# Nervous system response: tremor, spasm, convulsion, ataxia, posture abnormality, etc.
# Autonomic nerve: exophthalmos, salivation, tears, urination (hematuria), diarrhea, piloerection, breathing, etc.
# State of Animal: lethargy, hyperactivity, excitement, hair loss, diarrhea, abnormal behavior, death, etc.
# [3] = read-out: Inhibitory rate of colon adhesion
# [4] = read-out: Inhibitory rate of ulcer area of colon
# [5] = read-out: Inhibitory rate of weight increase per length
Compound,Adhesion Degree of Colon [1] [point],Colon weight to length ratio [1] [mg/cm],Ulcer area of colon [1],Body weight ([1]; Day 1) [g],Body weight ([1]; Day 2) [g],Body weight ([1]; Day 3) [g],Body weight ([1]; Day 4) [g],Body weight ([1]; Day 5) [g],Body weight ([1]; Day 6) [g],Body weight ([1]; Day 7) [g],"inhibition in vivo at 30 mg/kg [1, 3] [%]","inhibition in vivo at 30 mg/kg [1, 4] [%]","inhibition in vivo at 30 mg/kg [1, 5] [%]","Daily Body Weight ([2]; Female mice, Day 1) [g]","Daily Body Weight ([2]; Female mice, Day 2) [g]","Daily Body Weight ([2]; Female mice, Day 3) [g]","Daily Body Weight ([2]; Female mice, Day 4) [g]","Daily Body Weight ([2]; Female mice, Day 5) [g]","Daily Body Weight ([2]; Female mice, Day 6) [g]","Daily Body Weight ([2]; Female mice, Day 7) [g]",other results
"COCCN1C(=O)CCC(N2C(=O)c3ccc(O)c(N)c3C2=O)C1=O (centres unmarked) [Example 8, 4-amino-5-hydroxy-2-(1-(2-methoxyethyl)-2,6-dioxopiperidin-3-yl)isoindolin-1,3-dione]",0.9 ± 0.6,106 ± 13,0.2 ± 0.4 cm^2,128.6 ± 5.3,128.2 ± 9.2,131.6 ± 13.5,136.8 ± 17.4,149.1 ± 16.7,149.7 ± 16.8,164.1 ± 17.9,52.7,91.7,65.9,18.9 ± 0.9,22.9 ± 0.9,24.3 ± 0.7,24.3 ± 1.1,25.3 ± 1.4,25.8 ± 1.5,26.0 ± 2.5,"Daily Body Weight ([2]; Male mice, Day 1): 18.0 ± 1.3 g; Daily Body Weight ([2]; Male mice, Day 2): 23.1 ± 0.9 g; Daily Body Weight ([2]; Male mice, Day 3): 24.6 ± 1.0 g; Daily Body Weight ([2]; Male mice, Day 4): 25.6 ± 1.7 g; Daily Body Weight ([2]; Male mice, Day 5): 27.2 ± 2.2 g; Daily Body Weight ([2]; Male mice, Day 6): 28.2 ± 2.2 g; Daily Body Weight ([2]; Male mice, Day 7): 29.2 ± 2.6 g"
"CNc1cccc2c1C(=O)N(C1CCC(=O)N(CCOC)C1=O)C2=O (centres unmarked) [Example 2, 4-methylamino-2-(1-(2-methoxyethyl)-2,6-dioxopiperidin-3-yl)isoindolin-1,3-dione]",0.8 ± 0.9,120 ± 25,1.0 ± 1.6 cm^2,122.1 ± 4.6,123.0 ± 8.4,127.1 ± 11.3,132.0 ± 12.4,143.9 ± 11.9,141.5 ± 11.5,162.8 ± 15.8,66.9,83.3,57.6,19.2 ± 0.5,22.7 ± 0.6,23.2 ± 0.5,23.2 ± 0.5,24.4 ± 0.2,24.6 ± 1.1,24.5 ± 1.9,"Daily Body Weight ([2]; Male mice, Day 1): 18.6 ± 0.5 g; Daily Body Weight ([2]; Male mice, Day 2): 24.1 ± 0.4 g; Daily Body Weight ([2]; Male mice, Day 3): 24.7 ± 0.2 g; Daily Body Weight ([2]; Male mice, Day 4): 24.7 ± 0.2 g; Daily Body Weight ([2]; Male mice, Day 5): 26.2 ± 0.6 g; Daily Body Weight ([2]; Male mice, Day 6): 28.8 ± 0.5 g; Daily Body Weight ([2]; Male mice, Day 7): 29.2 ± 0.8 g"
"COCCN1C(=O)CCC(N2C(=O)c3cccc(C)c3C2=O)C1=O (centres unmarked) [Example 24, 4-methyl-2-(1-(2-methoxyethyl)-2,6-dioxopiperidin-3-yl)-isoindolin-1,3-dione]",0.8 ± 0.7,99 ± 18,0.3 ± 0.3 cm^2,129.1 ± 5.5,130.9 ± 10.4,133.2 ± 14.5,135.3 ± 13.6,144.9 ± 12.6,145.9 ± 13.3,165.6 ± 12.1,62.2,87.5,74.1,18.4 ± 0.7,22.4 ± 1.0,23.4 ± 1.0,23.6 ± 0.9,24.3 ± 0.6,24.7 ± 0.6,24.8 ± 1.5,"Daily Body Weight ([2]; Male mice, Day 1): 17.7 ± 0.2 g; Daily Body Weight ([2]; Male mice, Day 2): 22.3 ± 0.7 g; Daily Body Weight ([2]; Male mice, Day 3): 24.5 ± 1.0 g; Daily Body Weight ([2]; Male mice, Day 4): 25.2 ± 1.0 g; Daily Body Weight ([2]; Male mice, Day 5): 27.2 ± 1.3 g; Daily Body Weight ([2]; Male mice, Day 6): 28.1 ± 2.0 g; Daily Body Weight ([2]; Male mice, Day 7): 28.9 ± 1.9 g"
"C[S+]([O-])CCN1C(=O)CCC(N2C(=O)c3cccc(N)c3C2=O)C1=O (centres unmarked) [Example 12, 4-amino-2-(1-(2-methylsulfinylethyl)-2,6-dioxopiperidin-3-yl)isoindolin-1,3-dione]",0.8 ± 0.7,92 ± 16,0.4 ± 0.9 cm^2,129.1 ± 5.1,128.7 ± 6.6,133.9 ± 9.8,141.8 ± 12.0,149.2 ± 11.0,149.5 ± 11.2,167.3 ± 11.3,62.2,83.3,82.4,18.7 ± 0.7,21.8 ± 0.6,22.6 ± 0.1,22.6 ± 0.0,23.7 ± 0.6,25.3 ± 1.0,25.7 ± 1.6,"Daily Body Weight ([2]; Male mice, Day 1): 18.5 ± 0.2 g; Daily Body Weight ([2]; Male mice, Day 2): 24.3 ± 0.6 g; Daily Body Weight ([2]; Male mice, Day 3): 24.9 ± 0.1 g; Daily Body Weight ([2]; Male mice, Day 4): 24.9 ± 0.1 g; Daily Body Weight ([2]; Male mice, Day 5): 26.1 ± 0.7 g; Daily Body Weight ([2]; Male mice, Day 6): 27.8 ± 0.7 g; Daily Body Weight ([2]; Male mice, Day 7): 28.5 ± 0.7 g"
"COCCN1C(=O)CCC(F)(N2C(=O)c3cccc(N)c3C2=O)C1=O (centres unmarked) [Example 14, 4-amino-2-(1-(2-methoxyethyl)-3-fluoro-2,6-dioxopiperidin-3-yl)isoindolin-1,3-dione]",0.8 ± 0.5,102 ± 18,0.1 ± 0.4# cm^2,126.2 ± 8.7,125.1 ± 10.5,129.5 ± 17.8,136.5 ± 19.7,146.4 ± 19.4,147.6 ± 19.9,165.7 ± 20.8,62.2,95.8,70.6,–,–,–,–,–,–,–,–
"COCCN1C(=O)CCC(N2C(=O)c3c(F)c(F)c(F)c(F)c3C2=O)C1=O (centres unmarked) [Example 5, 4,5,6,7-tetrafluoro-2-(1-(2-methoxyethyl)-2,6-dioxopiperidin-3-yl)isoindolin-1,3-dione]",0.8 ± 0.5,99 ± 14,0.2 ± 0.5 cm^2,126.7 ± 8.9,125.0 ± 11.0,126.9 ± 14.0,133.9 ± 13.3,141.9 ± 14.9,146.9 ± 13.9,159.7 ± 14.3,62.2,91.7,74.1,–,–,–,–,–,–,–,–
